Experiments:
[1] = molecular target: Casein kinase I isoform alpha-like (Homo sapiens) (UniProt Q8N752); assay: CSNK1A1L Invitrogen Lab (UK) kinase screen (BI); settings: Compound concentration 1.0 uM
[2] = molecular target: Amine oxidase [flavin-containing] A (MAOA) (Homo sapiens, UniProt P21397); assay: MAOA Eurofins SafetyScreen44 (BI); set-up: mode of action inhibitor; settings: compound concentration 10 uM, read-out: % Ctrl
[3] = molecular target: Death-associated protein kinase 2 (Homo sapiens) (UniProt Q9UIK4); assay: DAPK2 Invitrogen Lab (UK) kinase screen (BI); settings: Compound concentration 1.0 uM
[4] = molecular target: Dual specificity mitogen-activated protein kinase kinase 2 (Homo sapiens) (UniProt P36507); settings: Compound concentration 1.0 uM
[5] = molecular target: Aurora kinase A (Homo sapiens) (UniProt O14965)
Aurora kinase A (Homo sapiens), sequence (O14965 whole entry): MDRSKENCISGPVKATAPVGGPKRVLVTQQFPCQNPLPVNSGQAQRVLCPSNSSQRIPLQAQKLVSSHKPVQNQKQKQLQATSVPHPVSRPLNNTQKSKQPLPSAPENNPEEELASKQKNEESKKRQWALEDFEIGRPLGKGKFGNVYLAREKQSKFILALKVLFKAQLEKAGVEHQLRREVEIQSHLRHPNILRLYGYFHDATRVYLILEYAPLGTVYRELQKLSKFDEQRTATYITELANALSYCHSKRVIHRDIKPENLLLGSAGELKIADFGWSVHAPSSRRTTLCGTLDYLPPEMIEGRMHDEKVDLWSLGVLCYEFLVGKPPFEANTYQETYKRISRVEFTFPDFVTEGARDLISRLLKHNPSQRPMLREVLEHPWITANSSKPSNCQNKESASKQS

[6] = molecular target: Fibroblast growth factor receptor 1 (Homo sapiens) (UniProt P11362)
Fibroblast growth factor receptor 1 (Homo sapiens), sequence (P11362 22-822 limits assumed): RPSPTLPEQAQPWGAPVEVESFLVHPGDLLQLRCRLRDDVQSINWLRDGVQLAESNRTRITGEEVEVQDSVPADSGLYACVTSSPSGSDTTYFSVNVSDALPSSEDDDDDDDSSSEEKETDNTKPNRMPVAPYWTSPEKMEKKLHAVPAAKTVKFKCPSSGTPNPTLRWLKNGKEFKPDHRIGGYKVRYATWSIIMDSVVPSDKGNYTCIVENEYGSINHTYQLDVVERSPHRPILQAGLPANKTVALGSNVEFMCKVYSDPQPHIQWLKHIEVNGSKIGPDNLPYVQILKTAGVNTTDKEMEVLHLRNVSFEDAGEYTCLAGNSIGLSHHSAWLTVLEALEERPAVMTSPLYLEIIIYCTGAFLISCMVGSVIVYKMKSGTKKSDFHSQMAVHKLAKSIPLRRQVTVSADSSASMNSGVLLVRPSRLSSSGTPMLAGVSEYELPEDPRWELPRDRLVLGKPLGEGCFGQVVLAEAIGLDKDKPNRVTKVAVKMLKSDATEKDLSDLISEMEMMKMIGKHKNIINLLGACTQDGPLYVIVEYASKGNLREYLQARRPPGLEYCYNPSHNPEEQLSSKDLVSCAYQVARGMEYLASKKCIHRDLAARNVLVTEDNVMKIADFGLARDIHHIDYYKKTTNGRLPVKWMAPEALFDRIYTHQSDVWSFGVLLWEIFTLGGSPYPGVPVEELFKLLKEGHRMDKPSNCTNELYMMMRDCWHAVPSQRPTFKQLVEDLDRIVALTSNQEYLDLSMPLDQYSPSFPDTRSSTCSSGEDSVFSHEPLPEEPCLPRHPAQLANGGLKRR

[7] = molecular target: Leukotriene C4 synthase (Cavia porcellus) (UniProt A6XA80); settings: Compound concentration 10.0 uM
[8] = molecular target: Tyrosine-protein kinase CSK (Homo sapiens) (UniProt P41240)
[9] = molecular target: Adrenergic receptor alpha-2 (Rattus norvegicus) (UniProt P22086+P19328+P22909); assay: ALPHA2/R Eurofins SafetyScreen44 (BI); type: protein assay
[10] = molecular target: Serine/threonine-protein kinase BRSK1 (Homo sapiens) (UniProt Q8TDC3); settings: Compound concentration 1.0 uM
[11] = molecular target: Casein kinase II subunit alpha (Homo sapiens) (UniProt P68400)
Casein kinase II subunit alpha (Homo sapiens), sequence (P68400 whole entry, looked up): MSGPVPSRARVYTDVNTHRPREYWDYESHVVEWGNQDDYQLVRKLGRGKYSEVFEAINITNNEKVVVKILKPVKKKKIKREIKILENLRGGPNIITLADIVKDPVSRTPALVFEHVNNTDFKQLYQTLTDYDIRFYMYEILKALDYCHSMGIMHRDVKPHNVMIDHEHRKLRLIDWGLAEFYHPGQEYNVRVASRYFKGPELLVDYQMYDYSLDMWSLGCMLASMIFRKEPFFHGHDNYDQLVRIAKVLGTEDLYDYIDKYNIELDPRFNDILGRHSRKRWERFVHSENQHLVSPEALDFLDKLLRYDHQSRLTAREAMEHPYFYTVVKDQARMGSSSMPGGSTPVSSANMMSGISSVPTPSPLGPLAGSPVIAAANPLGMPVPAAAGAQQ

[12] = molecular target: Serine/threonine-protein kinase N2 (Homo sapiens) (UniProt Q16513); assay: PRK2 DUNDEE kinase screen (BI); settings: Compound concentration 10.0 uM
[13] = molecular target: Serine/threonine-protein kinase N1 (Homo sapiens) (UniProt Q16512); settings: Compound concentration 1.0 uM
[14] = molecular target: Activin receptor type-1 (Homo sapiens) (UniProt Q04771); assay: ACVR1 Invitrogen Lab (UK) kinase screen (BI); settings: Compound concentration 1.0 uM
[15] = molecular target: GABA B receptor (Rattus norvegicus) (UniProt Q9Z0U4+O88871); assay: GABAB/RA Eurofins SafetyScreen44 (BI); type: protein-complex assay; settings: Compound concentration 10.0 uM
[16] = molecular target: Mitogen-activated protein kinase kinase kinase kinase 2 (Homo sapiens) (UniProt Q12851); settings: Compound concentration 1.0 uM
[17] = molecular target: RAC-beta serine/threonine-protein kinase (Homo sapiens) (UniProt P31751); assay: PKB-BETA DUNDEE kinase screen (BI); settings: Compound concentration 10.0 uM
[18] = molecular target: Ribosomal protein S6 kinase alpha-3 (Homo sapiens) (UniProt P51812); assay: MAPKAP-K1B DUNDEE kinase screen (BI); settings: Compound concentration 10.0 uM
[19] = molecular target: Phosphatidylinositol 4-phosphate 3-kinase C2 domain-containing subunit alpha (Homo sapiens) (UniProt O00443); settings: Compound concentration 1.0 uM
[20] = molecular target: CDK2/Cyclin A1 (Homo sapiens) (UniProt P24941+P78396); assay: CDK2/CYCLIN A1 Invitrogen Lab (UK) kinase screen (BI); type: protein-complex assay; settings: Compound concentration 1.0 uM
[21] = molecular target: Mitogen-activated protein kinase kinase kinase kinase 4 (Homo sapiens) (UniProt O95819)
Mitogen-activated protein kinase kinase kinase kinase 4 (Homo sapiens), sequence (O95819 2-1239 limits assumed): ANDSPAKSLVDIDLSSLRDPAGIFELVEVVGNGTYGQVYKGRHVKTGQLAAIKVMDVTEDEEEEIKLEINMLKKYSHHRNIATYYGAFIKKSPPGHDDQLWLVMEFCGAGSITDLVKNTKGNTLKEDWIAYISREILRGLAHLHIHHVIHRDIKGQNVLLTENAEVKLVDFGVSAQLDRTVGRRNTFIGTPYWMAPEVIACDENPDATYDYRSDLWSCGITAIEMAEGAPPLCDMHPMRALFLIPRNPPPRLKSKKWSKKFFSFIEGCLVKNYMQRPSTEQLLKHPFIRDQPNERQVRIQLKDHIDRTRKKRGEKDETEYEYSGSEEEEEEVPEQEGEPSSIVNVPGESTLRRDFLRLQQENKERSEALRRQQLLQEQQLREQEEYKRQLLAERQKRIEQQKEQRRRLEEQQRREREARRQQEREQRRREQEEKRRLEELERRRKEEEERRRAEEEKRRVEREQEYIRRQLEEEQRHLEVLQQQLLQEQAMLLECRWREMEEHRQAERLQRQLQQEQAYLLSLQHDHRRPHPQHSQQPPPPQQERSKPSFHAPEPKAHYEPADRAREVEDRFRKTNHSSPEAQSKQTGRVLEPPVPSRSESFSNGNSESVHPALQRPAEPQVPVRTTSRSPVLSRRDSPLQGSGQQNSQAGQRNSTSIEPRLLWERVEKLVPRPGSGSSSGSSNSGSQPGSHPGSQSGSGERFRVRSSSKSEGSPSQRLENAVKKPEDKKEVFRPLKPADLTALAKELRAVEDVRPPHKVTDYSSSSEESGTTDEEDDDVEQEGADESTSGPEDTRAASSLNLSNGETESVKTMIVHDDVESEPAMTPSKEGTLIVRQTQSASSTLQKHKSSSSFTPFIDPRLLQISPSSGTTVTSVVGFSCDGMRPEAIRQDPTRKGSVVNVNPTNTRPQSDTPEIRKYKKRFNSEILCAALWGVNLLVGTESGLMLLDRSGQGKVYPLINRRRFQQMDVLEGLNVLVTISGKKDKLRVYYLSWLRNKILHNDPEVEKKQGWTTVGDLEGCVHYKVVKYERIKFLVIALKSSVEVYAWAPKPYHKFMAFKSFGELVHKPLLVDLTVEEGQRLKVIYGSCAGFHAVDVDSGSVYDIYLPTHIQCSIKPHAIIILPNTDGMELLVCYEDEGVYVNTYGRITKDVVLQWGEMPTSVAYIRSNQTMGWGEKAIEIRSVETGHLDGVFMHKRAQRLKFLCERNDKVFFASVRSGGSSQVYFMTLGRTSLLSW

[22] = molecular target: AMPK alpha1/beta1/gamma2 (Homo sapiens) (UniProt Q9UGJ0+Q9Y478+Q13131); settings: Compound concentration 1.0 uM
[23] = molecular target: Testis-specific serine/threonine-protein kinase 2 (Homo sapiens) (UniProt Q96PF2); settings: Compound concentration 1.0 uM
[24] = molecular target: MAP/microtubule affinity-regulating kinase 3 (Homo sapiens) (UniProt P27448); assay: MARK3 DUNDEE kinase screen (BI); settings: Compound concentration 10.0 uM
[25] = molecular target: Interleukin-1 receptor-associated kinase 3 (Homo sapiens, UniProt Q9Y616); assay: Dose response measurement (IRAK3)
[26] = molecular target: Ribosomal protein S6 kinase beta-1 (Homo sapiens) (UniProt P23443)
[27] = molecular target: Mitogen-activated protein kinase 15 (Homo sapiens) (UniProt Q8TD08); assay: MAPK15 (ERK7) Invitrogen Lab (UK) kinase screen (BI); settings: Compound concentration 1.0 uM
[28] = molecular target: Serine/threonine-protein kinase B-raf (Homo sapiens) (UniProt P15056); assay: BRAF Invitrogen Lab (UK) kinase screen (BI); settings: Compound concentration 1.0 uM
[29] = molecular target: Polyunsaturated fatty acid 5-lipoxygenase (Homo sapiens) (UniProt P09917); assay: 5LO Eurofins SafetyScreen44 (BI); settings: Compound concentration 10.0 uM
[30] = molecular target: MAP kinase-interacting serine/threonine-protein kinase 2 (Homo sapiens) (UniProt Q9HBH9); assay: MNK2 ALPHA DUNDEE kinase screen (BI); settings: Compound concentration 10.0 uM
[31] = molecular target: PI3K p110 beta/p85 alpha (Homo sapiens) (UniProt P27986+P42338); assay: PIK3CBPIK3RI Invitrogen Lab (UK) kinase screen (BI); type: protein-complex assay; settings: Compound concentration 1.0 uM
[32] = molecular target: Proto-oncogene tyrosine-protein kinase Src (Homo sapiens) (UniProt P12931); assay: SRC DUNDEE kinase screen (BI); settings: Gallus gallus; Compound concentration 10.0 uM
[33] = molecular target: Leukocyte tyrosine kinase receptor (Homo sapiens) (UniProt P29376); settings: Compound concentration 1.0 uM
[34] = molecular target: Phosphatidylinositol 4-phosphate 5-kinase type-1 gamma (Homo sapiens) (UniProt O60331); settings: Compound concentration 1.0 uM
[35] = molecular target: 3-phosphoinositide-dependent protein kinase 1 (Homo sapiens) (UniProt O15530); settings: Compound concentration 10.0 uM
[36] = molecular target: Serine/threonine-protein kinase Nek9 (Homo sapiens) (UniProt Q8TD19); settings: Compound concentration 1.0 uM
[37] = molecular target: Sigma non-opioid intracellular receptor 1 (Homo sapiens) (UniProt Q99720); settings: Compound concentration 10.0 uM
[38] = molecular target: Wee1-like protein kinase (Homo sapiens) (UniProt P30291); settings: Compound concentration 1.0 uM
[39] = molecular target: Casein kinase II subunit alpha' (Homo sapiens) (UniProt P19784); settings: Compound concentration 1.0 uM
[40] = molecular target: Voltage-dependent L-type calcium channel subunit alpha-1C (CA+/DHPSI/RA) (Rattus norvegicus, UniProt P22002); assay: CA+/DHPSI/RA Eurofins SafetyScreen44 (BI); settings: read-out: % Ctrl
Voltage-dependent L-type calcium channel subunit alpha-1C (CA+/DHPSI/RA), sequence (P22002 whole entry): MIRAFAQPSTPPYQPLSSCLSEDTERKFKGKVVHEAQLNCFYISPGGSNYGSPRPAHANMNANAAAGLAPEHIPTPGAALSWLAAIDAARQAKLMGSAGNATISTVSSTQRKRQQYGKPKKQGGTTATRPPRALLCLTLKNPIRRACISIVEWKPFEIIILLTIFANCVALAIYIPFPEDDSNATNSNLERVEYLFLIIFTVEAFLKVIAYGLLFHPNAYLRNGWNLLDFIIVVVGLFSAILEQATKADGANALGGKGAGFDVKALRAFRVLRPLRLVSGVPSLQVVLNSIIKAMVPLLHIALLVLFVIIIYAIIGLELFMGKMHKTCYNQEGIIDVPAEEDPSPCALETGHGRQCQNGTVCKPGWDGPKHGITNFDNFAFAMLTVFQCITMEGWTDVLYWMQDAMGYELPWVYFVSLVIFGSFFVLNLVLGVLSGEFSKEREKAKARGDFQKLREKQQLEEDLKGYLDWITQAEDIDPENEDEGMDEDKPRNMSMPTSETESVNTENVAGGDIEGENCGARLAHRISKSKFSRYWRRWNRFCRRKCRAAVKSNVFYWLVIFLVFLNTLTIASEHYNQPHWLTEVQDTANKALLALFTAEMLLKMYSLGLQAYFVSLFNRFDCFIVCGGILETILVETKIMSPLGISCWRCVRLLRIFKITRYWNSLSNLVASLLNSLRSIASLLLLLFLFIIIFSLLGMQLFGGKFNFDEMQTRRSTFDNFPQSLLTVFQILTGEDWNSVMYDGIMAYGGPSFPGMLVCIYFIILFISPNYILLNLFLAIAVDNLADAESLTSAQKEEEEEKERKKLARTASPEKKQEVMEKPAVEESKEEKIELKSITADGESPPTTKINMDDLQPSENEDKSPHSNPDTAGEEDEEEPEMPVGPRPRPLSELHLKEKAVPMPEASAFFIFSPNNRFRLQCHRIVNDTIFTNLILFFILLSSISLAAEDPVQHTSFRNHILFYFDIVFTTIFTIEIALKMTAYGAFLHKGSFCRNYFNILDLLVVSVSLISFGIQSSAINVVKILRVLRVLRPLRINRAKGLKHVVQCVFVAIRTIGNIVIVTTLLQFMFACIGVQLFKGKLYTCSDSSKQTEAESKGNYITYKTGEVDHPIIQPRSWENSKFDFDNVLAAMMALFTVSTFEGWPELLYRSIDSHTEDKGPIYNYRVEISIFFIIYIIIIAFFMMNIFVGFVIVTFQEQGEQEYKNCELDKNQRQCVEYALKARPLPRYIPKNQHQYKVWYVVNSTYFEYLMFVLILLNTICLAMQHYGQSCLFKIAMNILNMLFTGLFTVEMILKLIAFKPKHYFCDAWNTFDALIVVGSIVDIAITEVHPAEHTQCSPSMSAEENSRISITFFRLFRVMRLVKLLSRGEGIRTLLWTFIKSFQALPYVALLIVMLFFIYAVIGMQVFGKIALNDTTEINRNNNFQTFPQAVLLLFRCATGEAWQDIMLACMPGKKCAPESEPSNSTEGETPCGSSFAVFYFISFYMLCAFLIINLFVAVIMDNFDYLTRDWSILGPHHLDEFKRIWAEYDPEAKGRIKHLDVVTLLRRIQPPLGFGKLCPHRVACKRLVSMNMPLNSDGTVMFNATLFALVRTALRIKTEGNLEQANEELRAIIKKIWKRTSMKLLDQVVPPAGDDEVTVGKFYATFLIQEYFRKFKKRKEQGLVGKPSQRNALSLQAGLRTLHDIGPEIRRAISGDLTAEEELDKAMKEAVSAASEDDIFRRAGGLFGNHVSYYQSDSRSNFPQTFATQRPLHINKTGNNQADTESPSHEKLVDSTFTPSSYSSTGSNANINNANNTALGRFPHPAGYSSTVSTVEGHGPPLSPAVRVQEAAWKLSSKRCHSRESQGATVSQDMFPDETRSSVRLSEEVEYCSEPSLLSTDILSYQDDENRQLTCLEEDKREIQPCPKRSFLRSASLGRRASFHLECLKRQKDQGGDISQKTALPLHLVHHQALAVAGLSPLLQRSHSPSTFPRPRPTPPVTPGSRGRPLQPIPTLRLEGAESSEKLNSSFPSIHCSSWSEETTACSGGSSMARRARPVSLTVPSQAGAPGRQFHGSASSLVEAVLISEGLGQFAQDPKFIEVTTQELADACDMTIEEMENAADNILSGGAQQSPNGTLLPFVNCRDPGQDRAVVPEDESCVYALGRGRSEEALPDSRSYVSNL

CCC(F)(F)c1cc(N2CCC(S(C)(=O)=O)CC2)nc2sc(C(N)=O)c(N)c12 [BI-605906]
residual activity [1]: 84%
activity at 10 µM [2]: 68% (not active)
residual activity [3]: 79%
residual activity [4]: 91%
residual activity ([5]; Compound concentration 1.0 uM): 93%
residual activity ([5]; Compound concentration 10.0 uM): 38%
residual activity ([6]; Compound concentration 1.0 uM): 84%
residual activity ([6]; Compound concentration 10.0 uM): 91%
residual activity [7]: 93%
residual activity ([8]; Compound concentration 1.0 uM): 96%
residual activity ([8]; Compound concentration 10.0 uM): 84%
residual activity ([9]; Compound concentration 10.0 uM): 103%
residual activity ([9]; Compound concentration 100.0 uM): 102%
residual activity [10]: 92%
residual activity ([11]; Compound concentration 1.0 uM): 92%
residual activity ([11]; Compound concentration 10.0 uM): 107%
residual activity [12]: 46.4%
residual activity [13]: 87%
residual activity [14]: 79%
residual activity [15]: 113%
residual activity [16]: 99%
residual activity [17]: 98.1%
residual activity [18]: 78.2%
residual activity [19]: 97%
residual activity [20]: 80%
residual activity ([21]; Compound concentration 1.0 uM): 95%
residual activity ([21]; Compound concentration 10.0 uM): 89%
residual activity [22]: 89%
residual activity [23]: 91%
residual activity [24]: 63.8%
IC50 [25]: 921 nM (not active)
residual activity ([26]; Compound concentration 1.0 uM): 94%
residual activity ([26]; Compound concentration 10.0 uM): 66%
residual activity [27]: 103%
residual activity [28]: 72%
residual activity [29]: 53%
residual activity [30]: 67.2%
residual activity [31]: 124%
residual activity [32]: 73.8%
residual activity [33]: 99%
residual activity [34]: 96%
residual activity [35]: 89.1%
residual activity [36]: 99%
inhibition [37]: 8.89%
residual activity [38]: 82%
residual activity [39]: 87%
activity at 1 µM ([40]; compound concentration 1 uM): 104% (not active)
activity at 3 µM ([40]; compound concentration 3 uM): 94% (not active)
activity at 10 µM ([40]; compound concentration 10 uM): 91% (not active)
activity at 30 µM ([40]; compound concentration 30 uM): 77% (not active)
activity at 100 µM ([40]; compound concentration 100 uM): 41.5%
